Like-named read-outs stand apart in the source and are kept apart here.
Tests used:
[1] = tested on: normal human skin fibroblasts
Protocol: Normal human skin fibroblasts were grown to confluency in 35 mm culture dishes (100,000 cells/dish) in quadruplicates. Then, 2 μCi of [^3H]-valine/ml of fresh media was added to each dish, along with or without 2, 20, 100, 200 μM of FAC. […] The cells were extensively washed with PBS and the soluble proteins present in the intracellular compartments were extracted overnight at 4° C. with 0.1 M acetic acid in the presence of proteinase inhibitors. After centrifugation the supernatants were pre-cleaned by 30 minutes incubation with 50 p. […] The protein A-containing beads were sedimented by centrifugation; washed with immunoprecipitation buffer, mixed with scintillation fluid and counted. […] The resulting pellets containing the insoluble elastin were then solubilized by boiling in 200 μl of 5.7 N HCl for 1 hour, and the aliquots were mixed in scintillation fluid and counted. […] Final results reflecting amounts of metabolically labeled insoluble elastin in individual cultures were normalized per their DNA content and expressed as CPM/1 DNA. […] The conditioned media was then removed and the cell layers were washed and incorporation of [^3H]-valine into the insoluble elastin was assessed as described above.

elastin mRNA [2] = conditions: 24 hours
Protocol: (§1) The intensity of elastin message signal detected by Northern blotting was assessed by densitometry after normalization to GAPDH message levels and the corresponding values are shown in the bar graph in arbitrary units. Elastin mRNA levels assessed by TaqMan real time PCR analysis were normalized to the corresponding levels of GAPDH mRNA and expressed as a percentage of untreated control values.

elastin mRNA [3] = conditions: 60 μM DRB
Protocol: (§2) Quantitative TaqMan RT-PCR. […] In order to assess the effect of iron on elastin mRNA stability parallel quadruplicate cultures were grown to confluency in 100 mm dishes. […] The reverse transcriptase reaction was performed using 1.5 μg of total RNA, oligo(dT)'s and the SuperScript First-Strand synthesis system (Invitrogen Life Technologies) according to manufacturer's instructions.
(§3) Elastin mRNA levels was measured by real-time quantitative PCR method performed on the ABI PRISM 7700 Sequence Detection System (Applied Biosystems, Foster City, Calif.). For each treatment two distinct amplifications were carried out in parallel in order to amplify elastin cDNA and GAPDH cDNA. The amplification reactions were performed in 25 μl volumes containing 30 ng of cDNA per treatment in triplicate, 12.5 μl of 2× TaqMan Universal PCR Master Mix (Applied Biosystems), and 1.25 μl of 20× Assays-on-Demand Gene Expression probe for elastin (Applied Biosystems) or TaqMan GAPDH probe (Applied Biosystems). Elastin mRNA levels from each treatment was normalized to the corresponding amount of GAPDH mRNA levels. Water controls and samples without PCR mixtures were set up to eliminate the possibility of significant DNA contamination. Final results were expressed as the mean of two independent experiments.
Since steady-state mRNA levels reflect the balance between transcription efficiency and message decay, we further studied whether fluctuations in iron concentration may affect elastin mRNA stability. […] At indicated time points total RNA was extracted and subjected to quantitative TaqMan RT-PCR analysis. The results are expressed as the mean±SD from two separate experiments conducted in quadruplicate cultures.

[4] = tested on: normal human skin fibroblasts; remark: listed apart in the source
Protocol: Since the net production of elastic fibers depend on the coordinated expression of multiple factors, the expression of three major factors facilitating elasogenesis by immunoflourecent microscopy after exposure of normal human skin fibroblasts to low (20 μM) and high (200 μM) iron concentrations was tested.

elastin mRNA [5] = tested on: elastin mRNA
Protocol: as §2, §3, §1

human skin = conditions: 10 μM MnSO4 or 20 μM FAC, 7 days; for elastic fibers (Movat's Pentachrome, ×400): person
Text: Materials and Methods. Organ cultures of explants were derived from surgical biopsies of human skin. […] All organ cultures were fixed in 1% buffered formalin and their transversal histological sections were stained with Movat pentachrome method to visualize major components of extracellular matrix, including elastic fibers.

serine proteinases = conditions: 2-200 μM iron
[6] = tested on: normal human skin fibroblasts; remark: listed apart in the source
Protocol: Assessment of Cell Proliferation. Normal human skin fibroblasts were suspended in DMEM containing 10% FBS and plated in 35 mm culture dishes (100,000 cells/dish) in quadruplicates. […] These cultures were then washed in PBS and treated with cold 5% trichloroacetic acid twice for 10 minutes at 4° C. For 30 minutes, 0.5 ml of 0.3 N NaOH was added to all dishes, and 200 μl aliquots of each culture were mixed with scintillation fluid and counted.

[7] = tested on: normal human skin fibroblasts; conditions: for elastin deposition (immunostaining): 3 days
[8] = tested on: normal human skin fibroblasts; conditions: 3 hours
Protocol: Assays of Intracellular ROS levels. […] This probe passively diffuses into the cell interior and only upon oxidation it releases a fluorescent product that can be visualized under fluorescent microscope or captured by flow cytophotometry, when it is excited at 480 nm. To measure intracellular ROS production normal human skin fibroblasts were plated on glass coverslips in 35 mm dishes (50,000 cells/dish) and grown to confluency. The cells were then washed with PBS and incubated with or without 10 μM of CM-H2DCFDA for 30 minutes in fresh media. The cells were then washed again in PBS and incubated with new media in the presence or absence of FAC (2-400 μM) for 3 additional hours. The cells were then washed twice with PBS before being mounted to the glass slides and the images were captured under a fluorescent microscope under identical parameters of contrast and brightness.
In addition, the quantification of this reaction was performed by flow cytometry (λ excitation 480 nm; λ emission 520 nm). Quadruplicate cultures of fibroblasts were preincubated with CM-H2DCFDA and maintained in the presence or absence of FAC as described above. […] They were then collected by centrifugation (4° C., 1000 RPM for 3 minutes), washed in cold PBS and fixed with 4% formaldehyde for 10 minutes in the dark and analyzed by flow cytometry (FACSCalibur, Beckton Dickinson).

elastin mRNA [9] = assay: Northern blot analysis of elastin mRNA levels in human aortic smooth muscle cells; format: cell-based
Protocol: (§4) Smooth muscle cells were isolated in the following manner porcine thoracic aortas and coronary arteries were dissected from young pigs obtained from local slaughterhouse. Passage two of human aortic smooth muscle cells from a normal subject was purchased from Clonetics Inc. (San Diego, Calif.). Arterial tissues were diced and explanted in a-MEM (modified Eagle's medium) supplemented with 10% FBS, 25 mM HEPES, L-glutamine, and […]. Tissue samples were diced and cells isolated by collagenase and elastase digestion as previously described.
(§5) Porcine thoracic aortas and coronary arteries were dissected from young pigs obtained from local slaughterhouse. Passage two of human aortic smooth muscle cells from a normal subject was purchased from Clonetics Inc. (San Diego, Calif.). Arterial tissues were diced and explanted in a-MEM (modified Eagle's medium) supplemented with 10% FBS, 25 mM HEPES, L-glutamine, and […]. Tissue samples were diced and cells isolated by collagenase and elastase digestion as previously described. Cells were maintained in a-MEM supplemented with 5% FBS and were routinely passaged by trypsinization. All the experiments were performed using SMC at passage 2-5. […] Aortic and coronary artery SMC's were plated at the initial density 50,000 dish, either directly on plastic or on coverslips, and maintained for 1-2 days until confluency. Cultures were then divided into experimental groups and maintained in the presence and absence of experimental reagents for 7 days. Fresh media were added at days 3 and 5.

[10] = tested on: human dermal fibroblast cultures; assay: Immunohistochemical analysis of elastin synthesis in human dermal fibroblast cultures; format: cell-based; conditions: for synthesis of elastin (elastic fibers detected by immunocytochemistry): all concentrations 0.5 μM-2.0 μM, fibroblasts from various aged subjects; for deposition of extracellular matrix components, elastin and collagen type I: human dermal fibroblast cultures
Text: Refer to FIG. 1, which illustrates both the elastic fibers detected by immunocytochemistry and the morphometric analysis of elastic fibers. MnCl2 and Mn-PCA were introduced into the fibroblasts derived from the various aged subjects over various concentrations.

[11] = tested on: human aortic smooth muscle cells; assay: Metabolic labeling of newly synthesized insoluble elastin by human aortic smooth muscle cells; format: cell-based
Protocol: as §4
as §5, with “Cultures were then divided into experimental groups and maintained in the presence and absence of experimental reagents for 7 days. Fresh media were added at days 3 and 5.” left out

[12] = tested on: human dermal fibroblast cultures; conditions: immunohistochemistry, versus control
Protocol: In some experiments the serum free medium was also used.
The above prepared fibroblasts and smooth muscle cells were cultured in the presence or absence of (0.5-5 μM) of a manganese salt. Deposition of extracellular matrix components, elastin and collagen type I was assessed in 5-10 days old cultures by immunohistochemistry with a panel of specific antibodies.

human dermal fibroblasts = assay: Cellular proliferation of human dermal fibroblasts (total DNA content and [3H]-thymidine incorporation); format: cell-based; conditions: person
Text: Manganese compositions induce cellular proliferation.

[13] = tested on: normal human skin fibroblasts; assay: Quantitative assay of insoluble elastin ([3H]-valine metabolic labeling) in fibroblast cultures; format: cell-based; conditions: for reversal of the inhibitory effect of 200 μM iron treatment on elastin deposition: antioxidant applied with 200 μM of iron
elastin mRNA [14] = assay: One-step RT-PCR of elastin and β-actin mRNA
Protocol: Total RNA was extracted using the RNeasy Mini Kit, according to manufacturers instructions, and 1 μM of total RNA was added to each one step RT-PCR (Qiagen OneStep RT-PCR Kit) and reactions were set up according to manufacturers instructions in a total volume of 25 μl. The reverse transcription step was performed for elastin and β-actin reactions at 50 ° C. for 30 minutes followed by 15 minutes at 95 ° C.
5 μl samples of the elastin and β-actin PCR products from each reaction were ran on a 2% agarose gel and post-stained with ethidium bromide. The amount of elastin mRNA was standardized relative to the amount of β-actin mRNA.

[15] = equimolar (20 μM) ferric iron and DFO

ferric ammonium citrate [FAC]
[3H]-valine-labeled tropoelastin synthesis ([1]; 2 and 20 μM iron, 72 hours): syntesize more [^3H]-valine-labeled tropoelastin than untreated counterparts
tropoelastin production ([1]; 100 and 200 μM iron versus 20 μM): lower tropoelastin production as compared to those treated with 20 μM
elastin mRNA levels (Northern blot, corrected for GAPDH) (elastin mRNA [2]; 200 μM of iron): returned back to control values
elastin mRNA levels (Northern blot, corrected for GAPDH) (elastin mRNA [2]; 2 and 20 μM iron): dose-dependent increase in elastin mRNA levels
elastin mRNA half-life (elastin mRNA [3]; 20 μM iron): ~16 h
decrease in elastin mRNA level (elastin mRNA [3]; 200 μM iron): about 2.5 fold
elastin mRNA half-life (elastin mRNA [3]; 200 μM iron): ~6 h
immunodetectable levels of elastin binding protein (EBP) [4]: not changed
immunodetectable levels of fibrillin-1 [4]: not changed
immunodetectable levels of lysyl oxidase [4]: not changed
increase in elastin mRNA levels (elastin mRNA [5]; 20 μM of iron, 24 hours): ~3 fold
tropoelastin mRNA (real-time RT-PCR) (elastin mRNA [5]; 200 μM of iron, 24 hours): significant reduction in tropoelastin mRNA
increase in the elastin mRNA level (elastin mRNA [5]; low iron concentrations (2-20 μM)): 2-3 fold
agitation and migration of stratum basale-derived cells with fibroblastic phenotype (human skin): higher than control level of agitation and migration of stratum basale-derived cells with fibroblastic phenotype
infiltrating activated (differentiating) cells (×600) (human skin): seem to contain more such activated cells
elastic fibers (Movat's Pentachrome, ×400) (human skin): induced deposition of shorter elastic fibers primarily running parallel to the epidermis
elastolytic activity of serine proteinases (serine proteinases): did not stimulate elastolytic activity of serine proteinases
[3H]-thymidine incorporation (proliferation rate) ([6]; high doses of iron (100 μM and 200 μM), 72 hours, listed as iron): proliferate with a significantly higher rate than untreated cells
cellular proliferation rate ([6]; low iron concentrations (lower than 25 μM)): did not cause any increase in cellular proliferation rate
elastin deposition (immunostaining) ([7]; 100 μM iron): did not induce better elastin deposition then treatment with 20
elastin deposition (immunostaining) ([7]; 200 μM of iron): dragged elastin deposition back to the control levels
production of elastic fibers (immunostaining) ([7]; 2 and 20 μM of iron, 3-day-long treatment): significantly increased the production of elastic fibers over control levels
intracellular ROS production ([8]; 2-40 μM of iron): produced the same amount of ROS as untreated controls
intracellular ROS production ([8]; 100-400 μM iron): dose dependant increase in ROS production

O=S(=O)([O-])[O-].[Mn+2] [MnSO4, manganese sulfate]
agitation and migration of stratum basale-derived cells with fibroblastic phenotype (human skin): higher than control level of agitation and migration of stratum basale-derived cells with fibroblastic phenotype
infiltrating activated (differentiating) cells (×600) (human skin): seem to contain more such activated cells
elastic fibers (Movat's Pentachrome, ×400) (human skin): stimulated production of long elastic fibers primarily running perpendicular to the epidermis
transcription of the elastin gene (elastin mRNA levels) (elastin mRNA [9]): can induce transcription of the elastin gene

manganese salt of L-Pyrrolidone Carboxylic Acid [Mn-PCA]
synthesis of elastin (elastic fibers detected by immunocytochemistry) [10]: induce synthesis of elastin
deposition of extracellular matrix components, elastin and collagen type I [10]: induced
increase in elastin synthesis over the control [11]: two-fold
more elastin transcription over the control (elastin mRNA [9]): ~66%
transcription of the elastin gene (elastin mRNA levels) (elastin mRNA [9]): can induce transcription of the elastin gene
deposition of collagen type I [12]: increased deposition in collagen type I
dermal fibroblast proliferation (human dermal fibroblasts): stimulate dermal fibroblast proliferation

CC1(C)CC(O)CC(C)(C)N1[O] [Tempol]
reversal of the inhibitory effect of 200 μM iron treatment on elastin deposition [13]: not observed

CC(=O)N(O)CCCCCNC(=O)CCC(=O)N(O)CCCCCNC(=O)CCC(=O)N(O)CCCCCN [DFO, desferrioxamine]
iron induced increase in elastin deposition [13, 15]: abolished the iron induced increase
elastin mRNA levels (elastin mRNA [14]; 20 μM of DFO, compared to untreated control): significantly reduced
iron induced increase in elastin mRNA levels (elastin mRNA [14]; [15]): abolished the iron induced increase

catalase
reversal of the inhibitory effect of 200 μM iron treatment on elastin deposition [13]: not observed

manganese chloride [MnCl2]
synthesis of elastin (elastic fibers detected by immunocytochemistry) [10]: induce synthesis of elastin
deposition of extracellular matrix components, elastin and collagen type I [10]: induced
transcription of the elastin gene (elastin mRNA levels) (elastin mRNA [9]): can induce transcription of the elastin gene
